From patent publication US8952024B2, “Herbicidal pyrimidone derivatives” (E I du Pont de Nemours and Company, priority 2009, dated 2015)

What was measured:
Test in all cases: Test C plant response
Assay type in all cases: in vivo
Settings in all cases: Postemergence, scale 0 to 100
[1] = test system: canarygrass (Phalaris minor)
Procedure, shortened: (§1)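 Visual response scores run from 0 (no effect) to 100 (complete control), assigned 14 days after treatment by comparison with untreated plants. Compounds were applied in a surfactant-containing non-phytotoxic solvent mixture.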

[2] = test system: Russian thistle (Salsola iberica)
Procedure, shortened: as §1

[3] = test system: deadnettle (henbit deadnettle, Lamium amplexicaule)
Procedure, shortened: as §1

[4] = test system: winter barley (Hordeum vulgare)
Procedure, shortened: as §1

[5] = test system: winter wheat (Triticum aestivum)
Procedure, shortened: as §1

[6] = test system: chickweed (common chickweed, Stellaria media)
Procedure, shortened: as §1

[7] = test system: green foxtail (Setaria viridis)
Procedure, shortened: as §1

[8] = test system: buckwheat (wild buckwheat, Polygonum convolvulus)
Procedure, shortened: as §1

[9] = test system: lambsquarters (Chenopodium album)
Procedure, shortened: as §1

[10] = test system: blackgrass (Alopecurus myosuroides)
Procedure, shortened: as §1

[11] = test system: wild mustard (Sinapis arvensis)
Procedure, shortened: as §1

[12] = test system: galium (catchweed bedstraw, Galium aparine)
Procedure, shortened: as §1

[13] = test system: bluegrass (annual bluegrass, Poa annua)
Procedure, shortened: as §1

[14] = test system: windgrass (Apera spica-venti)
Procedure, shortened: as §1

[15] = test system: oilseed rape (Brassica napus)
Procedure, shortened: as §1

[16] = test system: Italian ryegrass (Lolium multiflorum)
Procedure, shortened: as §1

[17] = test system: kochia (Kochia scoparia)
Procedure, shortened: as §1

[18] = test system: field poppy (Papaver rhoeas)
Procedure, shortened: as §1

[19] = test system: spring wheat (Triticum aestivum)
Procedure, shortened: as §1

[20] = test system: spring barley (Hordeum vulgare)
Procedure, shortened: as §1

[21] = test system: wild radish (Raphanus raphanistrum)
Procedure, shortened: as §1

[22] = test system: wild oat (Avena fatua)
Procedure, shortened: as §1

[23] = test system: pigweed (Amaranthus retroflexus)
Procedure, shortened: as §1

[24] = test system: bromegrass (downy bromegrass, Bromus tectorum)
Procedure, shortened: as §1

SMILES: Cc1ccc(-n2c(-c3ccccc3)ncc(C(=O)C3=C(O)CCCC3=O)c2=O)cc1 [Compound 8]
- Plant response rating: Canarygrass ([1]; 31 g ai/ha): 5
- Plant response rating: Canarygrass ([1]; 16 g ai/ha): 0
- Plant response rating: Canarygrass ([1]; 62 g ai/ha): 10
- Plant response rating: Canarygrass ([1]; 125 g ai/ha): 10
- Plant response rating: Russian Thistle ([2]; 31 g ai/ha): 90
- Plant response rating: Russian Thistle ([2]; 16 g ai/ha): 90
- Plant response rating: Russian Thistle ([2]; 62 g ai/ha): 95
- Plant response rating: Russian Thistle ([2]; 125 g ai/ha): 95
- Plant response rating: Deadnettle ([3]; 31 g ai/ha): 95
- Plant response rating: Deadnettle ([3]; 16 g ai/ha): 85
- Plant response rating: Deadnettle ([3]; 62 g ai/ha): 98
- Plant response rating: Deadnettle ([3]; 125 g ai/ha): 100
- Plant response rating: Barley, Winter ([4]; 31 g ai/ha): 20
- Plant response rating: Barley, Winter ([4]; 16 g ai/ha): 0
- Plant response rating: Barley, Winter ([4]; 62 g ai/ha): 20
- Plant response rating: Barley, Winter ([4]; 125 g ai/ha): 40
- Plant response rating: Wheat, Winter ([5]; 31 g ai/ha): 10
- Plant response rating: Wheat, Winter ([5]; 16 g ai/ha): 10
- Plant response rating: Wheat, Winter ([5]; 62 g ai/ha): 25
- Plant response rating: Wheat, Winter ([5]; 125 g ai/ha): 30
- Plant response rating: Chickweed ([6]; 31 g ai/ha): 95
- Plant response rating: Chickweed ([6]; 16 g ai/ha): 95
- Plant response rating: Chickweed ([6]; 62 g ai/ha): 95
- Plant response rating: Chickweed ([6]; 125 g ai/ha): 98
- Plant response rating: Foxtail, Green ([7]; 31 g ai/ha): 95
- Plant response rating: Foxtail, Green ([7]; 16 g ai/ha): 95
- Plant response rating: Foxtail, Green ([7]; 62 g ai/ha): 95
- Plant response rating: Foxtail, Green ([7]; 125 g ai/ha): 98
- Plant response rating: Buckwheat, Wild ([8]; 31 g ai/ha): 65
- Plant response rating: Buckwheat, Wild ([8]; 16 g ai/ha): 65
- Plant response rating: Buckwheat, Wild ([8]; 62 g ai/ha): 65
- Plant response rating: Buckwheat, Wild ([8]; 125 g ai/ha): 65
- Plant response rating: Lambsquarters ([9]; 31 g ai/ha): 98
- Plant response rating: Lambsquarters ([9]; 16 g ai/ha): 98
- Plant response rating: Lambsquarters ([9]; 62 g ai/ha): 98
- Plant response rating: Lambsquarters ([9]; 125 g ai/ha): 100
- Plant response rating: Blackgrass ([10]; 31 g ai/ha): 30
- Plant response rating: Blackgrass ([10]; 16 g ai/ha): 20
- Plant response rating: Blackgrass ([10]; 62 g ai/ha): 35
- Plant response rating: Blackgrass ([10]; 125 g ai/ha): 35
- Plant response rating: Mustard, Wild ([11]; 31 g ai/ha): 95
- Plant response rating: Mustard, Wild ([11]; 62 g ai/ha): 98
- Plant response rating: Mustard, Wild ([11]; 125 g ai/ha): 98
- Plant response rating: Galium ([12]; 31 g ai/ha): 75
- Plant response rating: Galium ([12]; 16 g ai/ha): 50
- Plant response rating: Galium ([12]; 62 g ai/ha): 90
- Plant response rating: Galium ([12]; 125 g ai/ha): 90
- Plant response rating: Bluegrass ([13]; 31 g ai/ha): 25
- Plant response rating: Bluegrass ([13]; 16 g ai/ha): 5
- Plant response rating: Bluegrass ([13]; 62 g ai/ha): 50
- Plant response rating: Bluegrass ([13]; 125 g ai/ha): 75
- Plant response rating: Windgrass ([14]; 31 g ai/ha): 10
- Plant response rating: Windgrass ([14]; 16 g ai/ha): 0
- Plant response rating: Windgrass ([14]; 62 g ai/ha): 20
- Plant response rating: Windgrass ([14]; 125 g ai/ha): 60
- Plant response rating: Oilseed Rape ([15]; 31 g ai/ha): 90
- Plant response rating: Oilseed Rape ([15]; 16 g ai/ha): 80
- Plant response rating: Oilseed Rape ([15]; 62 g ai/ha): 98
- Plant response rating: Oilseed Rape ([15]; 125 g ai/ha): 100
- Plant response rating: Ryegrass, Italian ([16]; 31 g ai/ha): 0
- Plant response rating: Ryegrass, Italian ([16]; 16 g ai/ha): 0
- Plant response rating: Ryegrass, Italian ([16]; 62 g ai/ha): 20
- Plant response rating: Ryegrass, Italian ([16]; 125 g ai/ha): 35
- Plant response rating: Kochia ([17]; 31 g ai/ha): 70
- Plant response rating: Kochia ([17]; 16 g ai/ha): 65
- Plant response rating: Kochia ([17]; 62 g ai/ha): 85
- Plant response rating: Kochia ([17]; 125 g ai/ha): 90
- Plant response rating: Field Poppy ([18]; 31 g ai/ha): 20
- Plant response rating: Field Poppy ([18]; 16 g ai/ha): 0
- Plant response rating: Field Poppy ([18]; 62 g ai/ha): 40
- Plant response rating: Field Poppy ([18]; 125 g ai/ha): 60
- Plant response rating: Wheat, Spring ([19]; 31 g ai/ha): 5
- Plant response rating: Wheat, Spring ([19]; 16 g ai/ha): 5
- Plant response rating: Wheat, Spring ([19]; 62 g ai/ha): 5
- Plant response rating: Wheat, Spring ([19]; 125 g ai/ha): 20
- Plant response rating: Barley, Spring ([20]; 31 g ai/ha): 10
- Plant response rating: Barley, Spring ([20]; 16 g ai/ha): 0
- Plant response rating: Barley, Spring ([20]; 62 g ai/ha): 20
- Plant response rating: Barley, Spring ([20]; 125 g ai/ha): 30
- Plant response rating: Radish, Wild ([21]; 31 g ai/ha): 95
- Plant response rating: Radish, Wild ([21]; 16 g ai/ha): 85
- Plant response rating: Radish, Wild ([21]; 62 g ai/ha): 98
- Plant response rating: Radish, Wild ([21]; 125 g ai/ha): 100
- Plant response rating: Oat, Wild ([22]; 31 g ai/ha): 20
- Plant response rating: Oat, Wild ([22]; 16 g ai/ha): 20
- Plant response rating: Oat, Wild ([22]; 62 g ai/ha): 30
- Plant response rating: Oat, Wild ([22]; 125 g ai/ha): 30
- Plant response rating: Pigweed ([23]; 31 g ai/ha): 95
- Plant response rating: Pigweed ([23]; 16 g ai/ha): 95
- Plant response rating: Pigweed ([23]; 62 g ai/ha): 98
- Plant response rating: Pigweed ([23]; 125 g ai/ha): 98
- Plant response rating: Bromegrass, Downy ([24]; 31 g ai/ha): 25
- Plant response rating: Bromegrass, Downy ([24]; 16 g ai/ha): 10
- Plant response rating: Bromegrass, Downy ([24]; 62 g ai/ha): 35
- Plant response rating: Bromegrass, Downy ([24]; 125 g ai/ha): 40
